# Laboratory results published in patent US20260224536A1, “ARYL HETEROCYCLIC KV1.3 INHIBITOR, PREPARATION METHOD THEREFOR, AND USE THEREOF” (SHANGHAI SHENSHI WISE TECHNOLOGY CO., LTD., priority 2022, published 2026).
# Target: Kv1.3 potassium channel (Homo sapiens, UniProt P22001)
# Test: Whole-cell patch-clamp assay for inhibitory activity against Kv1.3 (peak current)
# Type: cell-based
# Conditions: HEK293 cells stably expressing Kv1.3, patch-clamp
# Source text: The voltage stimulation protocol for recording whole-cell Kv1.X potassium currents via patch-clamp was as follows. After formation of a whole-cell seal, the cell membrane voltage was clamped at −80 mV, and then stepped to +40 mV for 500 ms. […] The test data were acquired by EPC-10 amplifier (HEKA) and stored in the PatchMaster (HEKA) software. Recording electrodes were drawn from capillary glass tubes using a microelectrode puller. Under an inverted microscope, the recording electrode was brought into contact with the cell surface by manipulating a microelectrode manipulator. Negative-pressure suction was applied to form a GΩ seal. After formation of the […], a rapid capacitance compensation was given. The application of negative pressure was continued to rupture the cell membrane, forming a whole-cell recording mode. Then, a slow capacitance compensation was given, and the membrane capacitance and series resistance were recorded. No current leakage compensation was provided. Once the whole-cell recorded Kv1.X current stabilized, drug administration was started. Each drug concentration was allowed to act for 5 min (or until the current reached a steady state) before the next concentration was tested. Multiple concentrations were tested for each test compound. The cover glass plated with the cells was placed in a recording bath of the inverted microscope. The test compound and the compound-free extracellular fluid were allowed to sequentially flow through the recording bath from low concentrations to high concentrations using a gravity perfusion method, thus acting on the cells, and liquid exchange was performed using a vacuum pump during recording. For each cell, the current detected in the compound-free extracellular liquid was used as its own control group. The test was independently repeated three times using at least three cells per concentration. All electrophysiological experiments were performed at room temperature. […] First, the peak current after the action of each drug concentration and the peak current of the blank control were standardized and then the inhibition rate corresponding to each drug concentration was calculated Subsequently, the mean, standard deviation (SD), and standard error (SE) were calculated for the inhibition rate corresponding to each concentration. Using the above equation, the IC50 value for each compound was calculated, and the dose-dependent effect was subjected to non-linear fitting, where IC50 is the half maximal inhibitory concentration. The IC50 calculation and the curve fitting were performed using the GraphPad Prism software.
# Sequence of Kv1.3 potassium channel (P22001 whole entry): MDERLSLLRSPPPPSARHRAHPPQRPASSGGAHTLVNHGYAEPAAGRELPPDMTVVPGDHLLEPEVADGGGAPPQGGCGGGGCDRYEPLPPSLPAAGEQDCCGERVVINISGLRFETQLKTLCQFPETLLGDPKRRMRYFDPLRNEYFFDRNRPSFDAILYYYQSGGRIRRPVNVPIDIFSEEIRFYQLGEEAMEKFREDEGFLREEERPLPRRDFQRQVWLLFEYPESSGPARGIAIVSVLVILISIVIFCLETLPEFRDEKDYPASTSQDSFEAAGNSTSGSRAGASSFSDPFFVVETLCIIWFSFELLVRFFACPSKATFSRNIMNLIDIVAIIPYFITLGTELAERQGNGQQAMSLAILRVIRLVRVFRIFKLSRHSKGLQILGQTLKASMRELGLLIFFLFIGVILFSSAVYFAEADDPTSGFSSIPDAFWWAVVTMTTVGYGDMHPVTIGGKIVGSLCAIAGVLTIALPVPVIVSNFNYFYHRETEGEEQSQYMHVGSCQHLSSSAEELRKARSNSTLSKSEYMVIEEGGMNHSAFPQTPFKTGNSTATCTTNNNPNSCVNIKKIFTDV
row,Structure (SMILES),IC50 [nM]
1,"Cn1cc(-c2nnc3n2C[C@H](c2c(O)ccc(Cl)c2Cl)C3)ccc1=O [Example 38, (S)-5-(6-(2,3-Dichloro-6-hydroxyphenyl)-6,7-dihydro-5H-pyrrolo[2,1-c][1,2,4]triazol-3-yl)-1-methylpyridin-2(1H)-one]",43.1
2,"CC1(C)CC(c2nnc3n2CC(c2c(O)ccc(Cl)c2Cl)C3)CCN1 (stereo not shown) [Example 89, 3,4-Dichloro-2-(3-(2,2-dimethylpiperidin-4-yl)-6,7-dihydro-5H-pyrrolo[2,1-c][1,2,4]triazol-6-yl)phenol]",8.25
3,"COC(=O)N1CCC(c2nnc3n2C[C@H](c2c(O)ccc(Cl)c2Cl)C3)C1 (single isomer, unassigned) [Example 50]",10.9
4,"O=C(c1nnc2n1CC(c1c(O)ccc(Cl)c1Cl)C2)N1CCNCC1 (stereo not shown) [Example 13, (6-(2,3-Dichloro-6-hydroxyphenyl)-6,7-dihydro-5H-pyrrolo[2,1-c][1,2,4]triazol-3-yl)(piperazin-1-yl)methanone]",5.09
5,"CC(C)N1CCN(C(=O)c2cnc3n2C[C@H](c2c(O)ccc(Cl)c2Cl)C3)CC1 [Example 121, (S)-(6-(2,3-Dichloro-6-hydroxyphenyl)-6,7-dihydro-5H-pyrrolo[1,2-a]imidazol-3-yl)(4-isopropylpiperazin-1-yl)methanone]",9.68
6,"CC(C)(C)c1nnc2n1CC(c1c(O)ccc(Cl)c1Cl)C2 (stereo not shown) [Example 16, 2-(3-(tert-Butyl)-6,7-dihydro-5H-pyrrolo[2,1-c][1,2,4]triazol-6-yl)-3,4-dichlorophenol]",74.7
7,"Oc1ccc(Cl)c(Cl)c1[C@@H]1Cc2nnc(-c3cccc4[nH]ncc34)n2C1 [Example 41, (S)-2-(3-(1H-Indazol-4-yl)-6,7-dihydro-5H-pyrrolo[2,1-c][1,2,4]triazol-6-yl)-3,4-dichlorophenol]",23.8
8,"Oc1ccc(Cl)c(Cl)c1[C@@H]1Cc2nnc(C3CCN(C4CCCCC4)CC3)n2C1 [Example 78, (S)-3,4-Dichloro-2-(3-(1-cyclohexylpiperidin-4-yl)-6,7-dihydro-5H-pyrrolo[2,1-c][1,2,4]triazol-6-yl)phenol]",12.6
9,"CCc1c2c(nn1C)CC(c1c(O)ccc(Cl)c1Cl)C2 (stereo not shown) [Example 113, 3,4-Dichloro-2-(3-ethyl-2-methyl-2,4,5,6-tetrahydrocyclopenta[c]pyrazol-5-yl)phenol]",57.9
10,"Oc1ccc(Cl)c(Cl)c1[C@@H]1Cc2nnc(-c3ccnc(C(F)(F)F)c3)n2C1 [Example 111, (S)-3,4-Dichloro-2-(3-(2-(trifluoromethyl)pyridin-4-yl)-6,7-dihydro-5H-pyrrolo[2,1-c][1,2,4]triazol-6-yl)phenol]",14.4
11,"CC(C)(C)n1cc(-c2cnc3n2CC(c2c(O)ccc(Cl)c2Cl)C3)cn1 (stereo not shown) [Example 98, 2-(3-(1-(tert-Butyl)-1H-pyrazol-4-yl)-6,7-dihydro-5H-pyrrolo[1,2-a]imidazol-6-yl)-3,4-dichlorophenol]",25.5
12,"CC1(C)CC(c2nnc3n2CC(c2c(O)ccc(Cl)c2Cl)C3)CC(C)(C)N1 (stereo not shown) [Example 88, 3,4-Dichloro-2-(3-(2,2,6,6-tetramethylpiperidin-4-yl)-6,7-dihydro-5H-pyrrolo[2,1-c][1,2,4]triazol-6-yl)phenol]",58.6
13,"C[C@]1(c2nnc3n2C[C@H](c2c(O)ccc(Cl)c2Cl)C3)CCOC1 [Example 65, 3,4-dichloro-2-((S)-3-((R)-3-methyltetrahydrofuran-3-yl)-6,7-dihydro-5H-pyrrolo[2,1-c][1,2,4]triazol-6-yl)phenol]",51.7
14,"OCc1nnc2n1C[C@@H](c1c(O)ccc(Cl)c1Cl)C2 [Example 1, (R)-3,4-Dichloro-2-(3-(hydroxymethyl)-6,7-dihydro-5H-pyrrolo[2,1-c][1,2,4]triazol-6-yl)phenol]",94.3
15,"Cn1cc(-c2cnc3n2CC(c2c(O)ccc(Cl)c2Cl)C3)cn1 (stereo not shown) [Example 97, 3,4-Dichloro-2-(3-(1-methyl-1H-pyrazol-4-yl)-6,7-dihydro-5H-pyrrolo[1,2-a]imidazol-6-yl)phenol]",11.7
16,"CC(C)N1CCC(Oc2nnc3n2CC(c2c(O)ccc(Cl)c2Cl)C3)CC1 (stereo not shown) [Example 102, 3,4-dichloro-2-(3-((1-isopropylpiperidin-4-yl)oxy)-6,7-dihydro-5H-pyrrolo[2,1-c][1,2,4]triazol-6-yl)phenol]",6.99
17,"N#Cc1ccc(-c2nnc3n2CC(c2c(O)ccc(Cl)c2Cl)C3)cc1 (stereo not shown) [Example 6, 4-(6-(2,3-dichloro-6-hydroxyphenyl)-6,7-dihydro-5H-pyrrolo[2,1-c][1,2,4]triazol-3-yl)benzonitrile]",13.2
18,"CCc1cnc2n1C[C@H](c1c(O)ccc(Cl)c1Cl)C2 [Example 92, (S)-3,4-Dichloro-2-(3-ethyl-6,7-dihydro-5H-pyrrolo[1,2-a]imidazol-6-yl)phenol]",5.51
19,"CCn1ncc2c1CC(c1c(O)ccc(Cl)c1Cl)C2 (single isomer, unassigned) [Example 118]",14.6
20,"CC(C)N1CC[C@@H](c2nnc3n2C[C@H](c2c(O)ccc(Cl)c2Cl)C3)C1 [Example 80, 3,4-Dichloro-2-((S)-3-((R)-1-isopropylpyrrolidin-3-yl)-6,7-dihydro-5H-pyrrolo[2,1-c][1,2,4]triazol-6-yl)phenol]",2.14
21,"Oc1ccc(Cl)c(Cl)c1[C@@H]1Cc2nnc([C@H]3CCNC3)n2C1 [Example 47, 3,4-Dichloro-2-((S)-3-((S)-pyrrolidin-3-yl)-6,7-dihydro-5H-pyrrolo[2,1-c][1,2,4]triazol-6-yl)phenol]",1.3
22,"Oc1ccc(Cl)c(Cl)c1C1Cc2nnc(CN3CCC(O)C3)n2C1 (stereo not shown) [Example 19, 1-((6-(2,3-Dichloro-6-hydroxyphenyl)-6,7-dihydro-5H-pyrrolo[2,1-c][1,2,4]triazol-3-yl)methyl)pyrrolidin-3-ol]",46.3
23,"Oc1ccc(Cl)c(Cl)c1C1Cc2nnc(CN3CCOCC3)n2C1 (stereo not shown) [Example 20, 3,4-Dichloro-2-(3-(morpholinomethyl)-6,7-dihydro-5H-pyrrolo[2,1-c][1,2,4]triazol-6-yl)phenol]",35.3
24,"Oc1ccc(Cl)c(Cl)c1[C@@H]1Cc2nnc([C@@H]3CCCNC3)n2C1 [Example 59, 3,4-dichloro-2-((S)-3-((R)-piperidin-3-yl)-6,7-dihydro-5H-pyrrolo[2,1-c][1,2,4]triazol-6-yl)phenol]",2.56
25,"O=C(c1nnc2n1CC(c1c(O)ccc(Cl)c1Cl)C2)N1CCC(O)C1 (stereo not shown) [Example 12, (6-(2,3-Dichloro-6-hydroxyphenyl)-6,7-dihydro-5H-pyrrolo[2,1-c][1,2,4]triazol-3-yl)(3-hydroxypyrrolidin-1-yl)methanone]",30.9
26,"Oc1ccc(Cl)c(Cl)c1C1Cc2nnc(C3CCN(C4CCOCC4)CC3)n2C1 (stereo not shown) [Example 22, 3,4-Dichloro-2-(3-(1-(tetrahydro-2H-pyran-4-yl)piperidin-4-yl)-6,7-dihydro-5H-pyrrolo[2,1-c][1,2,4]triazol-6-yl)phenol]",13.6
27,"CCc1nnc2n1C[C@H](c1c(O)ccc(Cl)c1Cl)C2 [Example 34, (S)-3,4-Dichloro-2-(3-ethyl-6,7-dihydro-5H-pyrrolo[2,1-c][1,2,4]triazol-6-yl)phenol]",9.75
28,"Oc1ccc(Cl)c(Cl)c1[C@@H]1Cc2nnc(C3CCCC3)n2C1 [Example 67, (S)-3,4-Dichloro-2-(3-cyclopentyl-6,7-dihydro-5H-pyrrolo[2,1-c][1,2,4]triazol-6-yl)phenol]",10.2
